# Bridge positions count the residues as written; N and C are the ends. Square brackets hold non-standard residues; d marks the D form. Peptide text beside a SMILES is read from it. R8 = C=CCCCCCC[C@@](C)(N)C(=O)O; S5 = C=CCCC[C@](C)(N)C(=O)O; Nle = CCCC[C@H](N)C(=O)O
# Columns and labels:
# E. coli = format: cell-based, Escherichia coli
# In short: (§1)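 Microdilution MIC test in polyanion-depleted MHB, with a final inoculum of 5×10^5 CFU/ml and 20-24 h incubation at 37° C.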
# B. cereus = format: cell-based, Bacillus cereus
# In short: as §1
# S. aureus = format: cell-based, Staphylococcus aureus
# In short: as §1
# P. aeruginosa = format: cell-based, Pseudomonas aeruginosa
# In short: as §1
# human red blood cells = format: cell-based; settings: red cells of human, 1 h, 25
# In short: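 Washed human RBCs as 1% (v/v) suspension in phosphate-buffered saline incubated 1 h at 37° C with serially diluted peptides. Hemoglobin release in supernatant measured spectrophotometrically (570 nm), % hemolysis relative to untreated and 1% Triton-X100 controls; MHC defined as concentration giving less than 1% release.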
# S. marcescens = format: cell-based
# Experimental: Antimicrobial Activity Assay:
# The following microbroth dilution protocol was adapted to determine the minimum inhibitory concentration (MIC) of each peptide. First, Mueller-Hinton broth (MHB) was passed through an anion exchange column to remove polyanionic species and generate refined MHB. […] Briefly, bacterial cells was grown overnight in refined MHB at 37° C. and then diluted and allowed to grow again for several hours. Serial dilutions of peptide stocks in water (10 μl) were prepared using clear round-bottom polypropylene 96-well plates. Then 90 μl of bacteria in refined MHB was added to give a final inoculum of 5×10^5 CFU/ml. The plates were then covered with porous tape to reduce evaporation, and incubated for 20-24 hours at 37° C. The MIC is the minimum peptide concentration at which no visible growth was observed.
Structure (SMILES),MIC E. coli (E. coli) [µg/mL],MIC B. cereus (B. cereus) [µg/mL],MIC S. aureus (S. aureus) [µg/mL],MIC P. aeruginosa (P. aeruginosa) [µg/mL],% Hemolysis at 25 μg/ml (human red blood cells) [%],MIC S. marcescens (S. marcescens) [µg/mL]
"CCCC[C@H](NC(=O)[C@]1(C)CCCC=CCCC[C@](C)(NC(=O)[C@H](C)NC(=O)[C@H](CCCCN)NC(=O)CNC(=O)[C@H](CCCCN)NC(=O)[C@H](CCCCN)NC(=O)[C@H](CCCCN)NC(=O)[C@H](C)NC(=O)[C@H](CO)NC(=O)[C@H](Cc2c[nH]cn2)NC(=O)[C@H](CC(C)C)NC(=O)[C@H](Cc2ccccc2)NC(=O)[C@H](CCCCN)NC(=O)CNC(=O)[C@@H](NC(=O)CN)[C@@H](C)CC)C(=O)N[C@@H](C(C)C)C(=O)NCC(=O)N[C@@H](CCC(=O)O)C(=O)N1)C(=O)N[C@@H](CC(N)=O)C(=O)N[C@@H](CO)C(N)=O [Mag(i + 4)15(F12K), GIGKFLHSAKKKGKAXVGEXBNS] (H-GIGKFLHSAKKKGKA[S5]VGE[S5][Nle]NS-NH2; staple 16-20)",3.1,>50,>50,12.5,2.0,
CCCC[C@H](NC(=O)[C@@H](NC(=O)[C@]1(C)CCCC=CCCCCCC[C@@](C)(NC(=O)[C@H](CCCCN)NC(=O)[C@H](CCCCN)NC(=O)[C@H](C)NC(=O)[C@H](C)NC(=O)[C@H](Cc2c[nH]cn2)NC(=O)[C@H](CC(C)C)NC(=O)[C@H](Cc2ccccc2)NC(=O)[C@H](CCCCN)NC(=O)CNC(=O)[C@@H](NC(=O)CN)[C@@H](C)CC)C(=O)N[C@@H](C)C(=O)N[C@@H](CCCCN)C(=O)N[C@@H](C)C(=O)N[C@@H](Cc2ccccc2)C(=O)N[C@@H](C(C)C)C(=O)N[C@@H](C)C(=O)N1)[C@@H](C)CC)C(=O)N[C@@H](CC(N)=O)C(=O)N[C@@H](CO)C(N)=O [MagStap 6] (H-GIGKFLHAAKK[R8]AKAFVA[S5]I[Nle]NS-NH2; staple 12-19; N-terminus assumed),3.1,3.1,,,,>50
CCCC[C@@H]1NC(=O)[C@H]([C@@H](C)CC)NC(=O)[C@H](CCC(=O)O)NC(=O)CNC(=O)[C@H](C(C)C)NC(=O)[C@H](Cc2ccccc2)NC(=O)[C@](C)(NC(=O)[C@H](CCCCN)NC(=O)CNC(=O)[C@H](Cc2ccccc2)NC(=O)[C@H](CCCCN)NC(=O)[C@H](CCCCN)NC(=O)[C@H](C)NC(=O)[C@H](CO)NC(=O)[C@H](Cc2c[nH]cn2)NC(=O)[C@H](CC(C)C)NC(=O)[C@H](Cc2ccccc2)NC(=O)[C@H](CCCCN)NC(=O)CNC(=O)[C@@H](NC(=O)CN)[C@@H](C)CC)CCCCCCC=CCCC[C@@](C)(C(=O)N[C@@H](CO)C(N)=O)NC1=O [Mag(i + 7)14] (H-GIGKFLHSAKKFGK[R8]FVGEI[Nle][S5]S-NH2; staple 15-22 (inferred); N-terminus and C-terminus assumed),1.6,1.6,1.6,6.2,68.1,
"CCCC[C@H](NC(=O)[C@]1(C)CCCC=CCCC[C@](C)(NC(=O)[C@H](C)NC(=O)[C@H](CCCCN)NC(=O)CNC(=O)[C@H](Cc2ccccc2)NC(=O)[C@H](CCCCN)NC(=O)[C@H](CCCCN)NC(=O)[C@H](C)NC(=O)[C@H](CO)NC(=O)[C@H](Cc2c[nH]cn2)NC(=O)[C@H](CC(C)C)NC(=O)[C@H](Cc2ccccc2)NC(=O)[C@H](CCCCN)NC(=O)CNC(=O)[C@@H](NC(=O)CN)[C@@H](C)CC)C(=O)N[C@@H](C(C)C)C(=O)N[C@@H](CCC(=O)O)C(=O)N[C@@H](CCC(=O)O)C(=O)N1)C(=O)N[C@@H](CC(N)=O)C(=O)N[C@@H](CO)C(N)=O [Mag(i + 4)15(G18E), GIGKFLHSAKKFGKAXVEEXBNS] (H-GIGKFLHSAKKFGKA[S5]VEE[S5][Nle]NS-NH2; staple 16-20)",3.1,6.2,12.5,12.5,4.8,
CCCC[C@H](NC(=O)[C@@H](NC(=O)[C@H](CCC(=O)O)NC(=O)CNC(=O)[C@@H](NC(=O)[C@H](Cc1ccccc1)NC(=O)[C@H](C)NC(=O)[C@]1(C)CCCC=CCCCCCC[C@@](C)(NC(=O)[C@H](CC(C)C)NC(=O)[C@H](Cc2ccccc2)NC(=O)[C@H](CCCCN)NC(=O)CNC(=O)[C@@H](NC(=O)CN)[C@@H](C)CC)C(=O)N[C@@H](CO)C(=O)N[C@@H](C)C(=O)N[C@@H](CCCCN)C(=O)N[C@@H](CCCCN)C(=O)N[C@@H](Cc2ccccc2)C(=O)NCC(=O)N1)C(C)C)[C@@H](C)CC)C(=O)N[C@@H](CC(N)=O)C(=O)N[C@@H](CO)C(N)=O [Mag(i + 7)6] (H-GIGKFL[R8]SAKKFG[S5]AFVGEI[Nle]NS-NH2; staple 7-14 (inferred); N-terminus and C-terminus assumed),3.1,6.2,6.2,25,47.1,
"CC[C@H](C)[C@H](NC(=O)CN)C(=O)NCC(=O)N[C@@H](CCCCN)C(=O)N[C@@H](Cc1ccccc1)C(=O)N[C@@H](CC(C)C)C(=O)N[C@@H](Cc1c[nH]cn1)C(=O)N[C@@H](CO)C(=O)N[C@@H](C)C(=O)N[C@@H](CCCCN)C(=O)N[C@@H](CCCCN)C(=O)N[C@@H](Cc1ccccc1)C(=O)NCC(=O)N[C@@H](CCCCN)C(=O)N[C@@H](C)C(=O)N[C@@]1(C)CCCC=CCCC[C@@](C)(C(=O)N[C@@H](CCC(=O)O)C(=O)N[C@@H](CC(N)=O)C(=O)N[C@@H](CO)C(N)=O)NC(=O)[C@H](CCC(=O)O)NC(=O)CNC(=O)[C@H](C(C)C)NC1=O [Mag(i + 4)15(B21E), GIGKFLHSAKKFGKAXVGEXENS] (H-GIGKFLHSAKKFGKA[S5]VGE[S5]ENS-NH2; staple 16-20)",25,>50,>50,>50,0.8,
CCCC[C@H](NC(=O)[C@@H](NC(=O)[C@H](CCC(=O)O)NC(=O)CNC(=O)[C@@H](NC(=O)[C@H](Cc1ccccc1)NC(=O)[C@H](C)NC(=O)[C@H](CCCCN)NC(=O)CNC(=O)[C@]1(C)CCCC=CCCC[C@](C)(NC(=O)[C@H](Cc2c[nH]cn2)NC(=O)[C@H](CC(C)C)NC(=O)[C@H](Cc2ccccc2)NC(=O)[C@H](CCCCN)NC(=O)CNC(=O)[C@@H](NC(=O)CN)[C@@H](C)CC)C(=O)N[C@@H](C)C(=O)N[C@@H](CCCCN)C(=O)N[C@@H](CCCCN)C(=O)N1)C(C)C)[C@@H](C)CC)C(=O)N[C@@H](CC(N)=O)C(=O)N[C@@H](CO)C(N)=O [Mag(i + 4)7] (H-GIGKFLH[S5]AKK[S5]GKAFVGEI[Nle]NS-NH2; staple 8-12),3.1,6.2,6.2,6.2,62.5,
CCCC[C@H](NC(=O)[C@@H](NC(=O)[C@H](CCC(=O)O)NC(=O)CNC(=O)[C@@H](NC(=O)[C@H](Cc1ccccc1)NC(=O)[C@H](C)NC(=O)[C@H](CCCCN)NC(=O)CNC(=O)[C@H](Cc1ccccc1)NC(=O)[C@H](CCCCN)NC(=O)[C@H](CCCCN)NC(=O)[C@H](C)NC(=O)[C@H](CO)NC(=O)[C@]1(C)CCCC=CCCC[C@](C)(NC(=O)[C@@H](NC(=O)CN)[C@@H](C)CC)C(=O)N[C@@H](CCCCN)C(=O)N[C@@H](Cc2ccccc2)C(=O)N[C@@H](CC(C)C)C(=O)N1)C(C)C)[C@@H](C)CC)C(=O)N[C@@H](CC(N)=O)C(=O)N[C@@H](CO)C(N)=O [Mag(i + 4)2] (H-GI[S5]KFL[S5]SAKKFGKAFVGEI[Nle]NS-NH2; staple 3-7),3.1,12.5,12.5,12.5,19.6,
"CCCC[C@H](NC(=O)[C@]1(C)CCCC=CCCC[C@](C)(NC(=O)[C@H](C)NC(=O)[C@H](CCCCN)NC(=O)CNC(=O)[C@H](Cc2ccccc2)NC(=O)[C@H](CCCCN)NC(=O)[C@H](CCCCN)NC(=O)[C@H](C)NC(=O)[C@H](CO)NC(=O)[C@H](Cc2c[nH]cn2)NC(=O)[C@H](CCCCN)NC(=O)[C@H](Cc2ccccc2)NC(=O)[C@H](CCCCN)NC(=O)CNC(=O)[C@@H](NC(=O)CN)[C@@H](C)CC)C(=O)N[C@@H](C(C)C)C(=O)NCC(=O)N[C@@H](CCC(=O)O)C(=O)N1)C(=O)N[C@@H](CC(N)=O)C(=O)N[C@@H](CO)C(N)=O [Mag(i + 4)15(L6K), GIGKFKHSAKKFGKAXVGEXBNS] (H-GIGKFKHSAKKFGKA[S5]VGE[S5][Nle]NS-NH2; staple 16-20)",3.1,>50,>50,12.5,1.9,

# — US20200231638A1, “STABILIZED ANTI-MICROBIAL PEPTIDES” (priority 2015, published 2020)
